Experimental data reported in patent US20240374631A1, “A COMPOSITION FOR IMPROVING GUT MICROBIOTA, BEHAVIOURAL PATTERN, ALPHA-SYNUCLEIN LEVELS, SLEEP PATTERN AND/OR SERUM MELATONIN” (GN Corporation Co Ltd, priority 2021, published 2024).

System: fecal metabolome
Test: Fecal metabolome analysis (GC-MS peak height, PCA, OPLS-DA) in STAM model of NASH
Assay type: in vivo, C57BL/6J mice

CCCc1nc2c(C)cc(-c3nc4ccccc4n3C)cc2n1Cc1ccc(-c2ccccc2C(=O)O)cc1 [Telmisartan]
Peak height after normalization, 2-Aminobutyric acid-2TMS (Difference): 17954.52 | Peak height after normalization, 2-Hydroxyisobutyric acid-2TMS (Difference): 133880.36 | Peak height after normalization, 3-Aminoglutaric acid-3TMS (Difference): 8627.53 | Peak height after normalization, 3-Hydroxybutyric acid-2TMS (Difference): −4608.17 | Peak height after normalization, 5-Aminovaleric acid-3TMS (Difference): 26394.02 | Peak height after normalization, Glutamic acid-3TMS (Difference): 382709.41 | Peak height after normalization, Glutamine-3TMS (Difference): 30745.13 | Peak height after normalization, Glycine-3TMS (Difference): 109331.29 | Peak height after normalization, Hypoxanthine-2TMS (Difference): 23680.72 | Peak height after normalization, Lactic acid-2TMS (Difference): −35605.88 | Peak height after normalization, Leucine-2TMS (Difference): 267732.46 | Peak height after normalization, Lysine-4TMS (Difference): 360841.28 | Peak height after normalization, Malic acid-3TMS (Difference): −16354.66 | Peak height after normalization, Norvaline-TMS (Difference): 37744.18 | Peak height after normalization, Phosphoric acid-3TMS (Difference): 15228.48 | Peak height after normalization, Proline-2TMS (Difference): 52750.51 | Peak height after normalization, Succinic acid-2TMS (Difference): 50806.69 | Peak height after normalization, Taurine-3TMS (Difference): 9869.33 | Peak height after normalization, Tyrosine-3TMS (Difference): 116635.49 | Peak height after normalization, Uracil-2TMS (Difference): −3276.22 | Peak height after normalization, Valine-2TMS (Difference): 267808.23 | Peak height after normalization, 2-Aminobutyric acid-2TMS (Post): 43700.57 | Peak height after normalization, 3-Aminoglutaric acid-3TMS (Post): 12436.04 | Peak height after normalization, 3-Hydroxybutyric acid-2TMS (Post): 10891.34 | Peak height after normalization, Alanine-2TMS (Post): 1268525.27 | Peak height after normalization, Glycerol-3TMS (Post): 324467.91 | Peak height after normalization, Glycine-3TMS (Post): 288456.14 | Peak height after normalization, Isoleucine-2TMS (Post): 381173.16 | Peak height after normalization, Lactic acid-2TMS (Post): 36363.66 | Peak height after normalization, Leucine-2TMS (Post): 631954.96 | Peak height after normalization, Lysine-4TMS (Post): 952876.14 | Peak height after normalization, Malic acid-3TMS (Post): 38544.73 | Peak height after normalization, Methionine-2TMS (Post): 168797.44 | Peak height after normalization, Norvaline-TMS (Post): 110365.67 | Peak height after normalization, Phenylalamine-2TMS (Post): 342996.16 | Peak height after normalization, Phosphoric acid-3TMS (Post): 122301.92 | Peak height after normalization, Proline-2TMS (Post): 151136.53 | Peak height after normalization, Taurine-3TMS (Post): 24726.77 | Peak height after normalization, Tryptophan-3TMS (Post): 28678.00 | Peak height after normalization, Uracil-2TMS (Post): 71567.16 | Peak height after normalization, Valine-2TMS (Post): 521841.20 | Peak height after normalization, Xanthine-3TMS (Post): 103194.40 | Peak height after normalization, 3-Aminoglutaric acid-3TMS (Pre): 3808.51 | Peak height after normalization, 3-Hydroxybutyric acid-2TMS (Pre): 15499.52 | Peak height after normalization, 5-Aminovaleric acid-3TMS (Pre): 28517.91 | Peak height after normalization, 5-Oxoproline-2TMS (Pre): 113169.35 | Peak height after normalization, #Sz,899;-3TMS (Pre): 124526.34 | Peak height after normalization, Aspartic acid-3TMS (Pre): 183416.60 | Peak height after normalization, Glycerol-3TMS (Pre): 283873.86 | Peak height after normalization, Hypoxanthine-2TMS (Pre): 33144.25 | Peak height after normalization, Isoleucine-2TMS (Pre): 175687.57 | Peak height after normalization, Lactic acid-2TMS (Pre): 71969.33 | Peak height after normalization, Lysine-4TMS (Pre): 592034.86 | Peak height after normalization, Malic acid-3TMS (Pre): 54899.38 | Peak height after normalization, Methionine-2TMS (Pre): 103825.98 | Peak height after normalization, Norvaline-TMS (Pre): 72621.50 | Peak height after normalization, Phenylalamine-2TMS (Pre): 208441.78 | Peak height after normalization, Phosphoric acid-3TMS (Pre): 107073.44 | Peak height after normalization, Succinic acid-2TMS (Pre): 263097.91 | Peak height after normalization, Taurine-3TMS (Pre): 14857.44 | Peak height after normalization, Tryptophan-3TMS (Pre): 16169.30 | Peak height after normalization, Tyrosine-3TMS (Pre): 309190.46 | Peak height after normalization, Uracil-2TMS (Pre): 74843.38 | Peak height after normalization, Valine-2TMS (Pre): 254032.97 | Peak height after normalization, Xanthine-3TMS (Pre): 101684.60
